The source of these data is patent publication US12492181B2, “Gem-disubstituted piperidine melanocortin subtype-2 receptor (MC2R) antagonists and uses thereof” (Crinetics Pharmaceuticals, Inc., priority 2019, dated 2025).

For the assay, the target named is T1, hMC2 receptor (crude hMC2R membranes from CRE-bla-CHO-K1 cells stably expressing hMC2 receptor and hMRAP accessory protein) (Homo sapiens, UniProt Q01718).
T1 construct: crude membrane fractions
T1 sequence (Q01718 whole entry): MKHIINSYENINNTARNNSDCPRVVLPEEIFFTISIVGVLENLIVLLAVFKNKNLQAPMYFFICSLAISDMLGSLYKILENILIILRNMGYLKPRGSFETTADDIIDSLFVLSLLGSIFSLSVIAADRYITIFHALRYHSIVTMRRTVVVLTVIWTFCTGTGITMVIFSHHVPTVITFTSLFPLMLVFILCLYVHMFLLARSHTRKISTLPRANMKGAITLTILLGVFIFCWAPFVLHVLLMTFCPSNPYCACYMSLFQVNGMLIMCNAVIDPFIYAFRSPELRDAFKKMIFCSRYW
T1 sequence (Q8TCY5 whole entry partner): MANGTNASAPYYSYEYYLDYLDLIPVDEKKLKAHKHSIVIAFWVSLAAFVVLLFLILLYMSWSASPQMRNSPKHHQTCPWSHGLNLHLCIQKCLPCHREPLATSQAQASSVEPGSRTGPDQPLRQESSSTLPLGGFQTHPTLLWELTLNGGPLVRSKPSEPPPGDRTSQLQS
As to the kind of experiment: hMC2 membrane binding assay ([125I]ACTH (1-39) Tyr23, SPA). The note with it: displacement of 0.2 nM [125I]ACTH (1-39) Tyr23 from hMC2R membranes, 1.5 hours at room temperature; read-out: MC2R binding potency. In short, it runs like this:
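Ki values come from non-linear regression of SPA scintillation counts, with compounds displacing [125I]ACTH(1-39) Tyr23. Membranes come from CRE-bla-CHO-K1 cells stably expressing hMC2 receptor together with hMRAP. They are preincubated with WGA-coated PVT SPA beads in 50 mM HEPES pH 7.4 with 0.20% BSA, Mg2+, Ca2+ and protease inhibitors.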
Take `CCOc1ncccc1-c1ccc(C2(C(=O)N[C@H]3CCN(C)C3)CCN(c3ccc(C(F)(F)F)cc3F)CC2)nn1` [Compound 1-193, 4-[6-(2-ethoxypyridin-3-yl)pyridazin-3-yl]-1-[2-fluoro-4-(trifluoromethyl)phenyl]-N-[(3S)-1-methylpyrrolidin-3-yl]piperidine-4-carboxamide]: the Ki is < 10 nM.
The same measure for `CCOc1ncccc1-c1ccc(C2(NC(=O)[C@@H]3CCCN3C)CCN(c3ccc(C(F)(F)F)cc3C#N)CC2)cc1` [Compound 2-11, (2S)—N-{1-[2-cyano-4-(trifluoromethyl)phenyl]-4-[4-(2-ethoxypyridin-3-yl)phenyl]piperidin-4-yl}-1-methylpyrrolidine-2-carboxamide]: 10 to 100 nM; for `CN1CC[C@H](NC(=O)C2(c3ccc(-c4cccnc4C4CC4)nc3)CCN(c3ccc(C(F)(F)F)cc3C#N)CC2)C1` [Compound 1-180, 1-[2-cyano-4-(trifluoromethyl)phenyl]-4-{2′-cyclopropyl-[2,3′-bipyridin]-5-yl}-N-[(3S)-1-methylpyrrolidin-3-yl]piperidine-4-carboxamide]: < 10 nM.
For the compound `Cn1cccc1-c1ccc(C2(C(=O)N[C@H]3C[C@H](N(C)C)C3)CCN(c3ccc(C(F)(F)F)cc3C#N)CC2)cn1` [Compound 1-240, 1-[2-cyano-4-(trifluoromethyl)phenyl]-4-[6-(1-methyl-1H-pyrrol-2-yl)pyridin-3-yl]-N-[(1R,3R)-3-(dimethylamino)cyclobutyl]piperidine-4-carboxamide], the Ki fell in the range of 10 to 100 nM.
With `Cc1cccnc1-c1ccc(C2(C(=O)N[C@@H]3CCN(C)C3)CCN(c3ccc(C(F)(F)F)cc3C#N)CC2)cn1` [Compound 1-177, 1-[2-cyano-4-(trifluoromethyl)phenyl]-4-{3′-methyl-[2,2′-bipyridin]-5-yl}-N-[(3R)-1-methylpyrrolidin-3-yl]piperidine-4-carboxamide], the Ki was 100 to 1000 nM.
The same measure for `CCOc1ncccc1-c1ccc(C2(NC(=O)N3CC[C@@H](NC)C3)CCN(c3ccc(C(F)(F)F)cc3C#N)CC2)cn1` [Compound 2-21]: < 10 nM; for `COc1ccccc1-c1ccc(C2(NC(=O)O[C@@H]3CCN(C)C3)CCN(c3ccc(C(F)(F)F)cc3C#N)CC2)cn1` [Compound 2-54, (3R)-1-methylpyrrolidin-3-yl N-{1-[2-cyano-4-(trifluoromethyl)phenyl]-4-[6-(2-methoxyphenyl)pyridin-3-yl]piperidin-4-yl}carbamate]: < 10 nM.
The same measure for `CCN(C)CCNC(=O)C1(c2ccc(-c3cccn3C)nc2)CCN(c2ccc(C(F)(F)F)cc2C#N)CC1` [Compound 1-265, 1-[2-cyano-4-(trifluoromethyl)phenyl]-N-{2-[ethyl(methyl)amino]ethyl}-4-[6-(1-methyl-1H-pyrrol-2-yl)pyridin-3-yl]piperidine-4-carboxamide]: < 10 nM.
To `CCOc1ncccc1-c1ccc(C2(C(=O)N[C@@H]3CCN(C)C3)CCN(c3ccc(C(F)(F)F)nc3C(N)=O)CC2)cn1` [Compound 1-25, 3-(4-{2′-ethoxy-[2,3′-bipyridin]-5-yl}-4-{[(3R)-1-methylpyrrolidin-3-yl]carbamoyl}piperidin-1-yl)-6-(trifluoromethyl)pyridine-2-carboxamide] belongs 10 to 100 nM; to `CCn1cccc1-c1ccc(C2(C(=O)N[C@H]3CCN(C)C3)CCN(c3ccc(C(F)(F)F)cc3C#N)CC2)cn1` [Compound 1-208, 1-[2-cyano-4-(trifluoromethyl)phenyl]-4-[6-(1-ethyl-1H-pyrrol-2-yl)pyridine-3-yl]-N-[(3S)-1-methylpyrrolidin-3-yl]piperidine-4-carboxamide], < 10 nM.
Regarding `CCOc1ncccc1-c1ccc(C2(C(=O)N[C@@H]3CCN(C)C3)CCN(c3ccc(C(F)(F)F)cc3C#N)CC2)nc1` [Compound 1-22, 1-[2-cyano-4-(trifluoromethyl)phenyl]-4-{2′-ethoxy-[3,3′-bipyridin]-6-yl}-N-[(3R)-1-methylpyrrolidin-3-yl]piperidine-4-carboxamide], the Ki is < 10 nM.
